According to patent US6960687B2, “Derivatives and pharmaceutical compositions of n-hydroxyalkyl tetramethylcyclopropane-carboxamide, having anti-epiletic, neurological, and CNS activity, and method for their preparation” (priority 2002, dated 2005):

Assays:
[1] = tested on: mice; experiment: 6 Hz psychomotor seizure model; conditions: for PI (6 Hz 44 mA): protective index at 44 mA stimulus; for ED50: Mus musculus, 0.25 h
[2] = tested on: mice; experiment: subcutaneous metrazole test (sc Met); type: in vivo
Text: This value is slightly lower (more efficacious) than that found for VPA in mice. The results are indicative of the compound 1 having an efficacy against absence seizures and ability to raise seizure threshold.
(§1) Compound V of the above diagram (2-hydroxyethyl-tetramethylcyclopropane-carboxamide) was screened for its ability to protect against induced convulsions in MES and scMet test. […] At the sc Met (subcutaneous metrazole) test, 3 out of 4 mice were protected following ip administration of 50 mg/kg.

[3] = tested on: mice; experiment: neurotoxicity, rotorod ataxia test; type: in vivo
Description: (§2) Neurotoxicity of the claimed agents was assessed in mice (ip. administration) in the rotorod ataxia test. Compound 1 was neurotoxic in some of the mice tested at doses of above 146 mg/kg ip. The PI for compound 1 at the highest stimulus intensity (44 mA) in the 6 Hz test in mice was 1.1 compared to 0.91 for VPA.

[4] = tested on: mice; experiment: maximal electroshock seizure test (MES); type: in vivo
Description: The ED50 (mice ip) in the MES model is between 150 and 300 mg/kg in mice (Table 1). This value is slightly lower than that of VPA in mice. The results are indicative of the compound 1 having an efficacy against generalized seizures and complex partial seizures that evolve into generalized motor seizures.
as §1

[5] = tested on: mouse; conditions: literature statement; cited from earlier work
[6] = tested on: animal models of epilepsy; conditions: literature statement; cited from earlier work
[7] = neurotoxicity, rotorod ataxia test; type: in vivo, mice; conditions: mouse, in vivo, ip
Description: as §2

[8] = tested on: mice; conditions: cited from earlier work
[9] = ip, 15 min following administration

In the case of CC1(C)C(C(=O)NCO)C1(C)C [Compound 1, N-hydroxymethyl-tetramethylcyclopropane-carboxamide], the “times more active compared to VPA, 6 Hz 32 mA test” value ([1]; mice, 32 mA) is reported as 1.38 times, the “times more active compared to VPA, 6 Hz 44 mA test” value ([1]; mice, 44 mA) is reported as 2.31 times and the “6 Hz 22 mA ED50” value ([1]; mice, ip, 15 min, stimulation intensity 22 mA) is reported as 75 mg/kg. The “6 Hz 32 mA ED50” value ([1]; mice, ip, 15 min, stimulation intensity 32 mA) was 91 mg/kg, the “6 Hz 44 mA ED50” value ([1]; mice, ip, 15 min, stimulation intensity 44 mA) was 134 mg/kg and the “PI (6 Hz 44 mA)” value ([1]; mice, ip) was 1.1. The “sc Met ED50” value [2, 9] was 120 mg/kg, the “Neurotoxicity TD50” value ([3]; mice, ip, 15 min following administration) was 146 mg/kg and the “doses neurotoxic in some of the mice tested” value ([3]; mice, ip, rotorod ataxia test) was “above 146 mg/kg”. For the same molecule, the “MES ED50” value [4, 9] was 150 to 300 mg/kg.
In the case of CC1(C)C(C(=O)NCCO)C1(C)C [Compound V, 2-hydroxyethyl-tetramethylcyclopropane-carboxamide], the “mice protected at the sc Met test” value ([2]; ip administration of 50 mg/kg) is reported as 3 out of 4, the “behavioral impairment (neurotoxicity)” value ([3]; dose of 50 mg/kg ip) is reported as “did not show any behavioral impairment” and the “mice protected at the MES test” value ([4]; dose of 30 mg/kg ip) is reported as 1 out of 4.
In the case of CNC(=O)C1C(C)(C)C1(C)C [N-Methyl-tetramethylcyclopropane carboxamide], the teratogenicity [5] is listed as “not teratogenic” and the “potency relative to VPA in animal models of epilepsy” value [6] is listed as “approximately 10 times”.
In the case of CC1(C)C(C(N)=O)C1(C)C [Tetramethylcyclopropane carboxamide, Tetramethyl-cyclopropane-carboxamide], the teratogenicity [5] is given as “not teratogenic”.
With CCCC(CCC)C(=O)O [VPA, valproic acid, reference compound] the ED50 ([1]; ip, read-out: 6 Hz 22 mA ED50) was 42 mg/kg, the ED50 ([1]; ip, read-out: 6 Hz 44 mA ED50) was 310 mg/kg and the “PI (6 Hz 44 mA)” value ([1]; mice, ip) was 0.91. The TD50 at 15 min [7] was 283 mg/kg and the ED50 ([4]; Mus musculus, 0.25 h, ip, 15 min following administration) was 271 mg/kg.
In the case of CCC(C)C(CC)C(N)=O (stereo not drawn) [Valnoctamide (VCD), Valnoctamide], the teratogenicity [5] is given as “non-teratogenic”.
For CC[C@@H](C(N)=O)N1CCCC1=O [levetiracetam], the “ED50 in 6 Hz model at 44 mA stimulus (existing antiepileptic drugs)” value [8] is given as 189 mg/kg.
In the case of CCCC(C(N)=O)C(C)C (stereo not drawn) [propyl-isoproylacetamide (PID), propyl-isoproylacetamide], the teratogenicity [5] is listed as “non-teratogenic”.
